What was measured:
[1] = biological target: Mitogen-activated protein kinase 11 (Homo sapiens) (UniProt Q15759); assay: Inhibition of human p38beta at 10 uM using MBP as substrate by [gamma-33P]-ATP assay relative to control
[2] = biological target: Dual specificity mitogen-activated protein kinase kinase 1 (Homo sapiens) (UniProt Q02750); assay: Inhibition of human MEK1 at 10 uM using ERK2 as substrate by [gamma-33P]-ATP assay relative to control
[3] = biological target: T1, RAF proto-oncogene serine/threonine-protein kinase (Homo sapiens, UniProt P04049); assay: Inhibition of human RAF1 at 10 uM using MEK1 (K97R) as substrate by [gamma-33P]-ATP assay relative to control
[4] = biological target: Proto-oncogene tyrosine-protein kinase Src (Homo sapiens) (UniProt P12931); assay: Inhibition of human c-SRC at 10 uM using poly[Glu:Tyr] (4:1) as substrate by [gamma-33P]-ATP assay relative to control
[5] = biological target: Voltage-gated inwardly rectifying potassium channel KCNH2 (Homo sapiens, UniProt Q12809); assay: Inhibition of human ERG incubated for 4 hrs by competitive fluorescence tracer binding based assay
[6] = biological target: Serine/threonine-protein kinase mTOR (Homo sapiens) (UniProt P42345); assay: Inhibition of human mTOR at 10 uM using 4EBP1 as substrate by [gamma-33P]-ATP assay relative to control
Homo sapiens [7] = organism: Homo sapiens; assay: Selectivity index, ratio of IC50 for human BRAF V600E mutant to IC50 for human p38alpha
[8] = biological target: T2, Hepatocyte growth factor receptor (Homo sapiens, UniProt P08581); assay: Inhibition of human c-MET using KKKSPGEYVNIEFG as substrate by [gamma-33P]-ATP assay
[9] = biological target: ALK tyrosine kinase receptor (Homo sapiens) (UniProt Q9UM73); assay: Inhibition of human ALK at 10 uM using poly[Glu:Tyr] (4:1) as substrate by [gamma-33P]-ATP assay relative to control
[10] = biological target: Dual specificity mitogen-activated protein kinase kinase 6 (Homo sapiens) (UniProt P52564); assay: Inhibition of human MKK6 at 10 uM using p38alpha as substrate by [gamma-33P]-ATP assay relative to control
[11] = biological target: T1, RAF proto-oncogene serine/threonine-protein kinase; assay: Inhibition of human RAF1 using MEK1 as substrate by [gamma-33P]-ATP assay
[12] = biological target: T2, Hepatocyte growth factor receptor; assay: Inhibition of human c-MET at 10 uM using KKKSPGEYVNIEFG as substrate by [gamma-33P]-ATP assay relative to control
[13] = Oral bioavailability in Sprague-Dawley rat at 10 mg/kg measured for each 30 mins by LC-MS/MS analysis; assay type: ADME, organism-based; conditions: in vivo
[14] = biological target: Receptor tyrosine-protein kinase erbB-2 (Homo sapiens) (UniProt P04626); assay: Inhibition of human ERBB2 at 10 uM using poly[Glu:Tyr] (4:1) as substrate by [gamma-33P]-ATP assay relative to control
[15] = Stability in human plasma assessed as remaining compound at 10 uM incubated for 120 mins by LC-MS analysis; assay type: ADME, cell-free; conditions: read-out: Stability
[16] = biological target: Tyrosine-protein kinase JAK2 (Homo sapiens) (UniProt O60674); assay: Inhibition of human JAK2 at 10 uM using poly[Glu:Tyr] (4:1) as substrate by [gamma-33P]-ATP assay relative to control
Homo sapiens [17] = organism: Homo sapiens; assay: Selectivity index, ratio of IC50 for human ERG to IC50 for human p38alpha
[18] = biological target: Serine/threonine-protein kinase B-raf (Homo sapiens, UniProt P15056, V600E); assay: Inhibition of human BRAF V600E mutant using MEK1 as substrate by […]-ATP assay
Homo sapiens [19] = organism: Homo sapiens; assay: Selectivity index, ratio of IC50 for human RAF1 to IC50 for human p38alpha
[20] = biological target: Mitogen-activated protein kinase 14 (Homo sapiens, UniProt Q16539); assay: Inhibition of human p38alpha at 10 uM using MBP as substrate by [gamma-33P]-ATP assay relative to control
[21] = biological target: Tyrosine-protein kinase BTK (Homo sapiens) (UniProt Q06187); assay: Inhibition of human BTK at 10 uM using KVEKIGEGTYGVVYK as substrate by [gamma-33P]-ATP assay relative to control
[22] = Half life in Sprague-Dawley rat at 10 mg/kg, po measured for each 30 mins by LC-MS/MS analysis; assay type: ADME, organism-based; conditions: in vivo
[23] = biological target: Tyrosine-protein kinase JAK1 (Homo sapiens) (UniProt P23458); assay: Inhibition of human JAK1 at 10 uM using poly[Glu:Tyr] (4:1) as substrate by [gamma-33P]-ATP assay relative to control
[24] = biological target: Mast/stem cell growth factor receptor Kit (Homo sapiens) (UniProt P10721); assay: Inhibition of human c-KIT at 10 uM using poly[Glu:Tyr] (4:1) as substrate by [gamma-33P]-ATP assay relative to control
[25] = biological target: Mitogen-activated protein kinase 1 (Homo sapiens) (UniProt P28482); assay: Inhibition of human ERK2 at 10 uM using MBP as substrate by [gamma-33P]-ATP assay relative to control
Homo sapiens [26] = organism: Homo sapiens; assay: Selectivity index, ratio of IC50 for human c-MET to IC50 for human p38alpha
[27] = biological target: Tyrosine-protein kinase Fyn (Homo sapiens) (UniProt P06241); assay: Inhibition of human FYN at 10 uM using poly[Glu:Tyr] (4:1) as substrate by [gamma-33P]-ATP assay relative to control
[28] = biological target: Proto-oncogene tyrosine-protein kinase ROS (Homo sapiens) (UniProt P08922); assay: Inhibition of human ROS at 10 uM using KKKSPGEYVNIEFG as substrate by [gamma-33P]-ATP assay relative to control

T1 sequence (P04049 whole entry): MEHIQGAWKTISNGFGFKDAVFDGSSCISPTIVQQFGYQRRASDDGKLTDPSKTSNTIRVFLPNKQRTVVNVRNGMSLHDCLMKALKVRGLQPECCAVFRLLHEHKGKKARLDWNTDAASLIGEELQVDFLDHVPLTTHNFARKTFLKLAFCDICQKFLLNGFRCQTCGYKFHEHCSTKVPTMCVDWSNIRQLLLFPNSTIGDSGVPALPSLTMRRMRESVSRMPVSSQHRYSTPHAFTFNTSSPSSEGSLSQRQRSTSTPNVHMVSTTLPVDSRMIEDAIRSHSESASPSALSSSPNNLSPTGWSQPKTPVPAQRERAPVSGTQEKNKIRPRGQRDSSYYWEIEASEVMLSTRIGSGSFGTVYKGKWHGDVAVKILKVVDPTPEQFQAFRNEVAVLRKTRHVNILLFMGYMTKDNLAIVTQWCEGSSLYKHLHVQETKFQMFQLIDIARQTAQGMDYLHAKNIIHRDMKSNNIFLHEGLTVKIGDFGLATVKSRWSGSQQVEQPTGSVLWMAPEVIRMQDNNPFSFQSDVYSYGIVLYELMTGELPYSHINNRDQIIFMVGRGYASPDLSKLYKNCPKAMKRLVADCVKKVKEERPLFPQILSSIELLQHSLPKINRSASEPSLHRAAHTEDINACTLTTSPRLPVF
T2 sequence (P08581 whole entry): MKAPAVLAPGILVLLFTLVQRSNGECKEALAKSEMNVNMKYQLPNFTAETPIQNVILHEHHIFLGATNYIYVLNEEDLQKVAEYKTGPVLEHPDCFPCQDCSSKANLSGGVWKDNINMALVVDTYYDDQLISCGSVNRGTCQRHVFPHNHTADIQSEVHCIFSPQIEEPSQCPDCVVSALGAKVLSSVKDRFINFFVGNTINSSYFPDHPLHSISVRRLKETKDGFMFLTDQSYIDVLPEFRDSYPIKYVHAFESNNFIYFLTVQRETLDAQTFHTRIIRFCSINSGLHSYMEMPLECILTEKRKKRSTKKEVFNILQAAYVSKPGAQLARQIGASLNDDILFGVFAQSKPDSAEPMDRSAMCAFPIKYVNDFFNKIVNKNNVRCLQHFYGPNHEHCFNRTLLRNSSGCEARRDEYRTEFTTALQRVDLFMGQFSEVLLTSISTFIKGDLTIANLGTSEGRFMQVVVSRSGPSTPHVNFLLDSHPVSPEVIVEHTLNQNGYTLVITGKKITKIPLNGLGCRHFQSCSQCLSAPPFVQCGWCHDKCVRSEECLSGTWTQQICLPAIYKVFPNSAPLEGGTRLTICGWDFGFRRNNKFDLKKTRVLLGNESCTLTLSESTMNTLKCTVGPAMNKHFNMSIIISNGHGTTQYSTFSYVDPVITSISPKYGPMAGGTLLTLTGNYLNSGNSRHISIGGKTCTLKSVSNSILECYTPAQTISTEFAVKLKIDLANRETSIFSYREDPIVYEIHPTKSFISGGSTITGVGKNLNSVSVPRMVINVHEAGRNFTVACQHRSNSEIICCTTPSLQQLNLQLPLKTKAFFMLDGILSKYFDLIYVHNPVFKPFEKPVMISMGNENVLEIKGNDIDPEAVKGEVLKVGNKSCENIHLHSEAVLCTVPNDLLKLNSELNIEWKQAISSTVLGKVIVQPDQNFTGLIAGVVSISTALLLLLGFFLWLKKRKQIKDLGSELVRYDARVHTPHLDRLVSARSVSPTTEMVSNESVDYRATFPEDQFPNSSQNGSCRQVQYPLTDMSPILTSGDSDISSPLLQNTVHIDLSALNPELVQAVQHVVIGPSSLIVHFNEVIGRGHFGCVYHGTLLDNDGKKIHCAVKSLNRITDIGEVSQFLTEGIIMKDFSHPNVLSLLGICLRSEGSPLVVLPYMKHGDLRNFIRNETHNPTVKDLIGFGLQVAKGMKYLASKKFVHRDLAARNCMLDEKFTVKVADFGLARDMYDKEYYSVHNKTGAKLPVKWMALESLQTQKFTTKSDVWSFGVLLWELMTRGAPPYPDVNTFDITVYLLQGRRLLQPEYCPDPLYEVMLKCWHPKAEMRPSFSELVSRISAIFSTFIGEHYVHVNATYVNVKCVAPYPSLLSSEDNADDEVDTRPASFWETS
Mast/stem cell growth factor receptor Kit (Homo sapiens), sequence (P10721 whole entry): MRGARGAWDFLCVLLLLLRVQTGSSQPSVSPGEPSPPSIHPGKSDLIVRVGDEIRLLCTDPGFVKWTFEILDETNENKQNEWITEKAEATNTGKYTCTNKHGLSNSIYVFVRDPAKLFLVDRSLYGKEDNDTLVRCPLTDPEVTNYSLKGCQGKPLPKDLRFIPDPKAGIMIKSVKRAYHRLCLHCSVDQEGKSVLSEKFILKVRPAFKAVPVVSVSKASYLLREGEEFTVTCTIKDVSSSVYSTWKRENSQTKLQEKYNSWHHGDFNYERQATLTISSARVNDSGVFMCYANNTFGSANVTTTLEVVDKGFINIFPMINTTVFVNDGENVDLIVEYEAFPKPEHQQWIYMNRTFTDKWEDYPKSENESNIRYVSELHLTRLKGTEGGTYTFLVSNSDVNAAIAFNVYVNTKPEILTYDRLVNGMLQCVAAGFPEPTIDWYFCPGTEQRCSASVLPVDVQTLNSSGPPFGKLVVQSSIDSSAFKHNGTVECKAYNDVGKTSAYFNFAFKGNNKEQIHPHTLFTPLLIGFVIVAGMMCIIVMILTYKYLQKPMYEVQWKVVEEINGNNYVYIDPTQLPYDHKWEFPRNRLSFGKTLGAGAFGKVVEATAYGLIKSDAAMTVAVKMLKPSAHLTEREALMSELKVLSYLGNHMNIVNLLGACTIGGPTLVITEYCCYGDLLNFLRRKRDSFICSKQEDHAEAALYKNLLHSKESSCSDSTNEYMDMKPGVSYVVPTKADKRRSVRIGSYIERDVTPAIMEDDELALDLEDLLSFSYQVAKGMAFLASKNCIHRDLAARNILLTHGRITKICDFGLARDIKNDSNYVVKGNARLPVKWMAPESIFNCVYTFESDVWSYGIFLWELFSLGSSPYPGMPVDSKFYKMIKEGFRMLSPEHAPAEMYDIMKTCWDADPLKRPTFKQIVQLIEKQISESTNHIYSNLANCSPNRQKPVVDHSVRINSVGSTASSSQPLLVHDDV
Receptor tyrosine-protein kinase erbB-2 (Homo sapiens), sequence (P04626 whole entry): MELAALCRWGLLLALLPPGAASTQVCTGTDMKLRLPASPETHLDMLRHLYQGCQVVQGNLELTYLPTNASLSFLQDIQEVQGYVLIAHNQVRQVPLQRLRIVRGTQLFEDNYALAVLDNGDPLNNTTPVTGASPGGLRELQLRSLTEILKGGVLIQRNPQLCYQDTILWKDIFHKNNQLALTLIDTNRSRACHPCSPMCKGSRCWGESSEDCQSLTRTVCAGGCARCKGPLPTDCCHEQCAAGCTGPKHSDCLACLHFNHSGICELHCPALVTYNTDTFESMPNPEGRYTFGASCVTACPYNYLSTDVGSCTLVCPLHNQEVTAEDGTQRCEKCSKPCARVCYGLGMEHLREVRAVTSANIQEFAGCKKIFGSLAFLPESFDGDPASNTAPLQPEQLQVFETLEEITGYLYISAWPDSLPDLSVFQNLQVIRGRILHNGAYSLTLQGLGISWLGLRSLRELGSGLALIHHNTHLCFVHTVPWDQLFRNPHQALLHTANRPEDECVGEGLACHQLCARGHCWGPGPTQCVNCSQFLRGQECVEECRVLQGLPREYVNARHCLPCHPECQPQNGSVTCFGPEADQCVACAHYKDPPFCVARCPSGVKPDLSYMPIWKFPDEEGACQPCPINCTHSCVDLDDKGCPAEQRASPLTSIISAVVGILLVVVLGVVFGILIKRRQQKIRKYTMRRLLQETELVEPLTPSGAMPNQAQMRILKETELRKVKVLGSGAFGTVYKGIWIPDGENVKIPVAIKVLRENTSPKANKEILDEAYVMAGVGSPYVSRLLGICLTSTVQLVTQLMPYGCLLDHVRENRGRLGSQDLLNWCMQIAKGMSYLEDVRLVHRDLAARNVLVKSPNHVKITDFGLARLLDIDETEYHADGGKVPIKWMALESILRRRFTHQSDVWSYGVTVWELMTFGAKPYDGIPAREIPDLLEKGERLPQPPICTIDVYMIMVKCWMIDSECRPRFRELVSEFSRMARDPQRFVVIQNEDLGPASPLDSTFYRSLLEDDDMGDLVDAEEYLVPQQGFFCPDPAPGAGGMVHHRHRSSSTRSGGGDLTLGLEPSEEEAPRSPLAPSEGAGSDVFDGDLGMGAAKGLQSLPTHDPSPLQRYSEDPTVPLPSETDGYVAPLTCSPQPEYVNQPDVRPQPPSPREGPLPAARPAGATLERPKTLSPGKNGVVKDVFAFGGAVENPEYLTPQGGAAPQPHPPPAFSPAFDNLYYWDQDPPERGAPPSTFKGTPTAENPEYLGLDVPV
Dual specificity mitogen-activated protein kinase kinase 6 (Homo sapiens), sequence (P52564 whole entry): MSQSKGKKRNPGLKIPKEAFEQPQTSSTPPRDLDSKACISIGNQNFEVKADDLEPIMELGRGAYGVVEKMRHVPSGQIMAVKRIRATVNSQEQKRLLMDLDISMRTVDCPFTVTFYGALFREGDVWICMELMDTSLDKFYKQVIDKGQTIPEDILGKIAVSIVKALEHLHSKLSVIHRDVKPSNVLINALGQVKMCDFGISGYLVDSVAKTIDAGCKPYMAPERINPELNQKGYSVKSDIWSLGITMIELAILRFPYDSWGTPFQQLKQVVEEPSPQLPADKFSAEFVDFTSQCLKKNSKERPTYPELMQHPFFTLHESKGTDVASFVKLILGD
Mitogen-activated protein kinase 14, sequence (Q16539 whole entry): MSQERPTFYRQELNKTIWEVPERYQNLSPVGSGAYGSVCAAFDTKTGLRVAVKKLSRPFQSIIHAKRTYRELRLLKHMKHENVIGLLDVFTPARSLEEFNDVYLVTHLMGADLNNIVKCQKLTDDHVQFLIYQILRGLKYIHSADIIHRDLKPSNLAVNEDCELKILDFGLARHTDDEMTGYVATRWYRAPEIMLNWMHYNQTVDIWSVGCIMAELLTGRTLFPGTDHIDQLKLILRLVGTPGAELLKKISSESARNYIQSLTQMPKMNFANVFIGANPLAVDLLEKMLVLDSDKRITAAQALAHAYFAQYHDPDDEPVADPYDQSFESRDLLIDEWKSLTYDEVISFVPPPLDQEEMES

## COc1ccc(-c2nn(-c3cccc(NC(=O)c4cccc(C(F)(F)F)c4)c3)cc2-c2ccncc2)cc1Cl
[1]
  inhibition: 63.2%
[2]
  inhibition: 12.2%
[3]
  inhibition: 90.5%
[4]
  inhibition: 33.4%
[5]
  IC50: 13100 nM
[6]
  inhibition: 6.75%
Homo sapiens [7]
  Ratio IC50: 7.18
[8]
  IC50: > 10000 nM
[9]
  inhibition: 3.5%
[10]
  inhibition: 29.5%
[11]
  IC50: 336 nM
[12]
  inhibition: 77.7%
[13]
  bioavailability: 11.3%
[14]
  inhibition: 20.4%
[15]
  remaining at 2 h, 10 µM: 98.4%
[16]
  inhibition: -9.88%
Homo sapiens [17]
  Ratio IC50: 23.8
[18]
  IC50: 158 nM
Homo sapiens [19]
  Ratio IC50: 15.3
[20]
  inhibition: 94.6%
[21]
  inhibition: 5.62%
[22]
  half-life: 7.3 h
[23]
  inhibition: -7.68%
[24]
  inhibition: 5.66%
[25]
  inhibition: 1.72%
Homo sapiens [26]
  Ratio IC50: 455
[27]
  inhibition: 27%
[28]
  inhibition: 5.26%

From ChEMBL document CHEMBL4311959, “Discovery of a potent p38α/MAPK14 kinase inhibitor: Synthesis, in vitro/in vivo biological evaluation, and docking studies” (Eur J Med Chem, 2019)
